# Source: patent publication US9738677B2, “Amphotericin B derivative with reduced toxicity” (priority 2014, dated 2017)
# Entries after “also recorded” stand apart in the source; their conditions may differ.
# What was measured:
# [1] = ITC sterol binding, POPC LUVs containing 10% ergosterol
# Protocol: Isothermal Titration calorimetry (ITC)
# In an optimized isothermal titration calorimetry (ITC)-based assay, an aqueous solution of AmB was titrated with a suspension of large unilamellar vesicles (LUVs) comprised of only 1-palmitoyl-2-oleoyl-sn-glycero-3-phosphocholine (POPC), and the net exotherm was recorded. The titration was repeated using POPC LUVs containing 10% ergosterol. […] The titration was repeated using C2′epiAmB. […] The ITC assay was also conducted with cholesterol in place of ergosterol.
# Experiments were performed using a NanoITC isothermal titration calorimeter (TA Instruments, Wilmington, Del.). Solutions of the compounds to be tested were prepared by diluting a 60.0 mM stock solution of the compound in DMSO to 600 μM with K buffer (5.0 mM HEPES/KHEPES, pH=7.4). The final DMSO concentration in the solution was 1% v/v. Large unilamellar vesicles comprised of only 1-palmitoyl-2-oleoyl-sn-glycero-3-phosphocholine (POPC LUVs) were prepared and phosphorus and ergosterol content was quantified as described below. The LUV solutions were diluted with buffer and DMSO to give a final phospholipid concentration of 12.0 mM in a 1% DMSO/K buffer solution. Immediately prior to use, all solutions were incubated at 37° C. for 30 minutes and degassed under vacuum at 37° C. for 10 minutes. The reference cell of the instrument (volume=0.190 mL) was filled with a solution of 1% v/v DMSO/K buffer.
# Palmitoyl oleoyl phosphatidylcholine (POPC) was obtained as a 20 mg/mL solution in CHCl3 from Avanti Polar Lipids (Alabaster, Ala.) and was stored at −20° C. under an atmosphere of dry argon and used within 1 month. […]
# Ergosterol content was determined spectrophotometrically. […] The solutions were then analyzed by UV/Vis spectroscopy and the concentration of ergosterol in solution was determined by the extinction coefficient of 10400 L mol^−1 cm^−1 at the UVmax of 282 nm and was compared to the concentration of phosphorus to determine the percent sterol content. The extinction coefficient was determined independently in the above ternary solvent system. […]
# [2] = system: primary human renal proximal tubule epithelial cells; assay: WST-8 cell proliferation assay (MTC); type: cell-based; conditions: up to limits of solubility
# Protocol: WST-8 Cell Proliferation Assays
# Primary human renal proximal tubule epithelial cells (RPTECs) were purchased from ATCC (Manassas, Va.) and immediately cultured upon receipt. Complete growth media was prepared using renal epithelial cell basal medium (ATCC, PCS-400-030), renal epithelial cell growth kit (ATCC, PCS-400-040), and penicillin-streptomycin (10 units/mL and 10 μg/mL). Complete media was stored at 4° C. in the dark and used within 28 days. Primary RPTECs were grown in CO2 incubator at 37° C. with an atmosphere of 95% air/5% CO2.
# WST-8 cell proliferation assay kit (Ser. No. 10/010,199) was purchased from Cayman Chemical Company (Ann Arbor, Mich.) and stored at −20° C. and used within 6 months of receipt. WST-8 reagent and electron mediator solution were thawed and mixed to prepare the WST-8 reagent solution. The solution was stored at −20° C. and used within one week.
# A suspension of primary RPTECs in complete growth media was brought to a concentration of 1×10^5 cells/mL. A 96-well plate was seeded with 99 μL of the cell suspension and incubated at 37° C. with an atmosphere of 95% air/5% CO2 for 3 hours. Positive and negative controls were prepared by seeding with 100 μL of the cell suspension or 100 μL of the complete media. Compounds were prepared as 5 mM (AmB), 20 mM (C2′deOAmB), and 50 mM (C2′epiAmB) stock solutions in DMSO and serially diluted to the following concentrations with DMSO: 50000, 40000, 30000, 20000, 10000, 8000, 6000, 4000, 3000, 2000, 1500, 1000, 800, 600, 400, 300, 200, 100, 50, 25, 10, 5, 2.5, 1, 0.5, 0.25, and 0.1 μM. 1 μL aliquots of each solution were added to the 96-well plate in triplicate, with each column representing a different concentration of the test compound. The 96-well plate was incubated at 37° C. with an atmosphere of 95% air/5% CO2 for 24 hours. […] Following incubation, the 96-well plate was mixed in a shaking incubator at 200 rpm for 1 minute and absorbances were read at 450 nm using a Biotek H1 Synergy Hybrid Reader (Wanooski, Vt.). […]
smiles,measurement,setting,value
C[C@@H]1[C@H](O)[C@@H](C)/C=C/C=C/C=C/C=C/C=C/C=C/C=C/[C@H](O[C@@H]2O[C@H](C)[C@@H](O)[C@H](N)[C@H]2O)CC2O[C@](O)(C[C@@H](O)C[C@@H](O)[C@H](O)CC[C@@H](O)C[C@@H](O)CC(=O)O[C@H]1C)C[C@H](O)[C@H]2C(=O)O [C2′epiAmB],Total exotherm,"[1]; 10% ergosterol LUVs, 600 μM compound",-15.24 ± 1.66 µcal
same,Binding to ergosterol (in words),[1]; net exotherm vs sterol-free LUVs,binds to ergosterol; also recorded: retained capacity for the epimeric derivative to bind ergosterol
same,Toxicity to primary human renal proximal tubule epithelial cells (in words),[2],no evidence of toxicity up to their limits of solubility
